Laboratory results reported in patent US20080269241A1, “BICYCLIC AMINOPROPYL TETRAHYDRO-PYRAZOLO-PYRIDINE MODULATORS OF CATHEPSIN S” (priority 2007, published 2008).

Molecular target: T1, human cathepsin S (CatS) (Homo sapiens, UniProt P25774)
T1 construct: made in house; host or cells: baculovirus system (insect cells)
Assay: Recombinant human cathepsin S (CatS) fluorogenic substrate inhibition assay
Assay type: biochemical
Conditions: recombinant human CatS, 10 μM Z-Valine-Valine-Arginine-AMC, pH 5.0; average of results obtained; read-out: CatS IC50
Description: Recombinant human cathepsin S (CatS) was expressed in the baculovirus system and purified in one step with a thiopropyl-sepharose column. […] The assay is run in 150 mM sodium acetate pH 5.0 containing 1.5 mM DTT and 150 mM NaCl. […] Measurements are taken every min for 20 min. The rate is calculated from the slope of the increase in fluorescence and the percent inhibition is calculated from this.

T1 sequence (P25774 115-331): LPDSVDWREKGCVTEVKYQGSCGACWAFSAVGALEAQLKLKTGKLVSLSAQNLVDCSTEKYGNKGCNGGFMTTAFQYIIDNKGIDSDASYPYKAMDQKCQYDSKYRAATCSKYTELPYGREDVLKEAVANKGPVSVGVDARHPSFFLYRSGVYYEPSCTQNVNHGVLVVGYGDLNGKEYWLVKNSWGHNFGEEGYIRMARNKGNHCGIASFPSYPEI

Row | Structure (SMILES) | IC50 [nM]
1 | CN(C)c1ccc2c(n1)n(C1CCN(CC(O)Cn3nc(-c4ccc(C(F)(F)F)c(CNC(=O)CO)c4)c4c3CCN(S(C)(=O)=O)C4)CC1)c(=O)n2C (stereo not drawn) [Example 152, 2-Hydroxy-N-[5-(1-{3-[4-(5-Dimethylamino-1-methyl-2-oxo-1,2-dihydro-imidazo[4,5-b]pyridin-3-yl)-piperidin-1-yl]-2-hydroxy-propyl}-5-methanesulfonyl-4,5,6,7-tetrahydro-1H-pyrazolo[4,3-c]pyridin-3-yl)-2-trifluoromethyl-benzyl]-acetamide] | 250
2 | CS(=O)(=O)N1CCc2c(c(-c3ccc(Cl)c(NC(=O)c4ccc(Cl)cc4)c3)nn2CCCN2CCN(c3cccc(Cl)c3)CC2)C1 [Example 200, 4-Chloro-N-[2-chloro-5-(1-{3-[4-(3-chloro-phenyl)-piperazin-1-yl]-propyl}-5-methanesulfonyl-4,5,6,7-tetrahydro-1H-pyrazolo[4,3-c]pyridin-3-yl)-phenyl]-benzamide] | 600
3 | CS(=O)(=O)N1CCc2c(c(-c3ccc(C(F)(F)F)c(CNC(=O)c4cscn4)c3)nn2CC(O)CN2CCC(N3CCCC3=O)CC2)C1 (stereo not drawn) [Example 114, Thiazole-4-carboxylic acid 5-(1-{2-hydroxy-3-[4-(2-oxo-pyrrolidin-1-yl)-piperidin-1-yl]-propyl}-5-methanesulfonyl-4,5,6,7-tetrahydro-1H-pyrazolo[4,3-c]pyridin-3-yl)-2-trifluoromethyl-benzylamide] | 100
4 | CS(=O)(=O)N1CCc2c(c(-c3ccc(C(F)(F)F)c(CNc4nc5ccccc5[nH]4)c3)nn2CC(O)CN2CCC(N3CCCC3=O)CC2)C1 (stereo not drawn) [Example 175, 1-{1-[3-(3-{3-[(1H-Benzoimidazol-2-ylamino)-methyl]-4-trifluoromethyl-phenyl}-5-methanesulfonyl-4,5,6,7-tetrahydro-pyrazolo[4,3-c]pyridin-1-yl)-2-hydroxy-propyl]-piperidin-4-yl}-pyrrolidin-2-one] | 4150
5 | CS(=O)(=O)N1CCc2c(c(-c3ccc(C(F)(F)F)c(CNC(=O)c4ccc(Br)s4)c3)nn2CC(O)CN2CCC(N3CCCC3=O)CC2)C1 (stereo not drawn) [Example 48, 5-Bromo-thiophene-2-carboxylic acid 5-(1-{2-hydroxy-3-[4-(2-oxo-pyrrolidin-1-yl)-piperidin-1-yl]-propyl}-5-methanesulfonyl-4,5,6,7-tetrahydro-1H-pyrazolo[4,3-c]pyridin-3-yl)-2-trifluoromethyl-benzylamide] | 30
6 | CS(=O)(=O)N1CCc2c(c(-c3ccc(C(F)(F)F)c(CNC(=O)CN4CCCC4)c3)nn2CCCN2CCC(N3CCCC3=O)CC2)C1 [Example 183, N-[5-(5-Methanesulfonyl-1-{3-[4-(2-oxo-pyrrolidin-1-yl)-piperidin-1-yl]-propyl}-4,5,6,7-tetrahydro-1H-pyrazolo[4,3-c]pyridin-3-yl)-2-trifluoromethyl-benzyl]-2-pyrrolidin-1-yl-acetamide] | 800
7 | CN(C)c1ccc2c(n1)n(C1CCN(CC(O)Cn3nc(-c4ccc(C(F)(F)F)c(CN)c4)c4c3CCN(S(C)(=O)=O)C4)CC1)c(=O)n2C (stereo not drawn) [Example 216, 3-(1-{3-[3-(3-Aminomethyl-4-trifluoromethyl-phenyl)-5-methanesulfonyl-4,5,6,7-tetrahydro-pyrazolo[4,3-c]pyridin-1-yl]-2-hydroxy-propyl}-piperidin-4-yl)-5-dimethylamino-1-methyl-1,3-dihydro-imidazo[4,5-b]pyridin-2-one] | 600
8 | CS(=O)(=O)N1CCc2c(c(-c3ccc(Cl)c(NS(=O)(=O)/C=C/c4ccccc4)c3)nn2CCCN2CCN(c3cccc(Cl)c3)CC2)C1 [Example 203, 2-Phenyl-ethenesulfonic acid [2-chloro-5-(1-{3-[4-(3-chloro-phenyl)-piperazin-1-yl]-propyl}-5-methanesulfonyl-4,5,6,7-tetrahydro-1H-pyrazolo[4,3-c]pyridin-3-yl)-phenyl]-amide] | 690
9 | Cc1ccc(NCc2cc(-c3nn(CCCN4CCC(N5CCCC5=O)CC4)c4c3CN(S(C)(=O)=O)CC4)ccc2Cl)cc1 [Example 208, 1-[1-(3-{3-[4-Chloro-3-(p-tolylamino-methyl)-phenyl]-5-methanesulfonyl-4,5,6,7-tetrahydro-pyrazolo[4,3-c]pyridin-1-yl}-propyl)-piperidin-4-yl]-pyrrolidin-2-one] | 280
10 | CS(=O)(=O)N1CCc2c(c(-c3ccc(C(F)(F)F)c(CNC(=O)c4ccc(CO)cc4)c3)nn2CC(O)CN2CCC(N3CCCC3=O)CC2)C1 (stereo not drawn) [Example 107, 4-Hydroxymethyl-N-[5-(1-{2-hydroxy-3-[4-(2-oxo-pyrrolidin-1-yl)-piperidin-1-yl]-propyl}-5-methanesulfonyl-4,5,6,7-tetrahydro-1H-pyrazolo[4,3-c]pyridin-3-yl)-2-trifluoromethyl-benzyl]-benzamide] | 70
11 | CS(=O)(=O)N1CCc2c(c(-c3ccc(C(F)(F)F)c(CNC(=O)c4ccco4)c3)nn2CC(O)CN2CCC(N3CCCC3=O)CC2)C1 (stereo not drawn) [Example 52, Furan-2-carboxylic acid 5-(1-{2-hydroxy-3-[4-(2-oxo-pyrrolidin-1-yl)-piperidin-1-yl]-propyl}-5-methanesulfonyl-4,5,6,7-tetrahydro-1H-pyrazolo[4,3-c]pyridin-3-yl)-2-trifluoromethyl-benzylamide] | 190
12 | CS(=O)(=O)N1CCc2c(c(-c3ccc(C(F)(F)F)c(CNC(=O)c4ccc(-c5ccccn5)s4)c3)nn2CC(O)CN2CCC(N3CCCC3=O)CC2)C1 (stereo not drawn) [Example 121, 5-Pyridin-2-yl-thiophene-2-carboxylic acid 5-(1-{2-hydroxy-3-[4-(2-oxo-pyrrolidin-1-yl)-piperidin-1-yl]-propyl}-5-methanesulfonyl-4,5,6,7-tetrahydro-1H-pyrazolo[4,3-c]pyridin-3-yl)-2-trifluoromethyl-benzylamide] | 150
13 | Cc1coc(NCc2cc(-c3nn(CCCN4CCC(N5CCCC5=O)CC4)c4c3CN(S(C)(=O)=O)CC4)ccc2C(F)(F)F)n1 [Example 177, 1-{1-[3-(5-Methanesulfonyl-3-{3-[(4-methyl-oxazol-2-ylamino)-methyl]-4-trifluoromethyl-phenyl}-4,5,6,7-tetrahydro-pyrazolo[4,3-c]pyridin-1-yl)-propyl]-piperidin-4-yl}-pyrrolidin-2-one] | 1660
14 | CS(=O)(=O)N1CCc2c(c(-c3ccc(C(F)(F)F)c(CNC(=O)CN4CCCC4=O)c3)nn2CCCN2CCC(N3CCCC3=O)CC2)C1 [Example 182, N-[5-(5-Methanesulfonyl-1-{3-[4-(2-oxo-pyrrolidin-1-yl)-piperidin-1-yl]-propyl}-4,5,6,7-tetrahydro-1H-pyrazolo[4,3-c]pyridin-3-yl)-2-trifluoromethyl-benzyl]-2-(2-oxo-pyrrolidin-1-yl)-acetamide] | 900
15 | CS(=O)(=O)N1CCc2c(c(-c3ccc(C(F)(F)F)c(CNC(=O)CN4CCCCC4)c3)nn2CCCN2CCC(N3CCCC3=O)CC2)C1 [Example 135, N-[5-(5-Methanesulfonyl-1-{3-[4-(2-oxo-pyrrolidin-1-yl)-piperidin-1-yl]-propyl}-4,5,6,7-tetrahydro-1H-pyrazolo[4,3-c]pyridin-3-yl)-2-trifluoromethyl-benzyl]-2-piperidin-1-yl-acetamide] | 410
16 | CS(=O)(=O)N1CCc2c(c(-c3ccc(C(F)(F)F)c(CNC(=O)c4cncs4)c3)nn2CC(O)CN2CCC(N3CCCC3=O)CC2)C1 (stereo not drawn) [Example 134, Thiazole-5-carboxylic acid 5-(1-{2-hydroxy-3-[4-(2-oxo-pyrrolidin-1-yl)-piperidin-1-yl]-propyl}-5-methanesulfonyl-4,5,6,7-tetrahydro-1H-pyrazolo[4,3-c]pyridin-3-yl)-2-trifluoromethyl-benzylamide] | 380
17 | CS(=O)(=O)N1CCc2c(c(-c3ccc(C(F)(F)F)c(CNC(=O)c4cc5c(s4)CCC5)c3)nn2CC(O)CN2CCC(N3CCCC3=O)CC2)C1 (stereo not drawn) [Example 50, 5,6-Dihydro-4H-cyclopenta[b]thiophene-2-carboxylic acid 5-(1-{2-hydroxy-3-[4-(2-oxo-pyrrolidin-1-yl)-piperidin-1-yl]-propyl}-5-methanesulfonyl-4,5,6,7-tetrahydro-1H-pyrazolo[4,3-c]pyridin-3-yl)-2-trifluoromethyl-benzylamide] | 30
18 | CC(C)CCNCc1cc(-c2nn(CC(O)CN3CCC(N4CCOCC4)CC3)c3c2CN(S(C)(=O)=O)CC3)ccc1C(F)(F)F (stereo not drawn) [Example 282, 1-(5-Methanesulfonyl-3-{3-[(3-methyl-butylamino)-methyl]-4-trifluoromethyl-phenyl}-4,5,6,7-tetrahydro-pyrazolo[4,3-c]pyridin-1-yl)-3-(4-morpholin-4-yl-piperidin-1-yl)-propan-2-ol] | 860
19 | CS(=O)(=O)N1CCc2c(c(-c3ccc(Cl)c(NS(=O)(=O)Cc4ccccc4)c3)nn2CCCN2CCN(c3cccc(Cl)c3)CC2)C1 [Example 202, N-[2-Chloro-5-(1-{3-[4-(3-chloro-phenyl)-piperazin-1-yl]-propyl}-5-methanesulfonyl-4,5,6,7-tetrahydro-1H-pyrazolo[4,3-c]pyridin-3-yl)-phenyl]-C-phenyl-methanesulfonamide] | 680
20 | CC(C)NC(=O)NCc1cc(-c2nn(CCCN3CCC(N4CCCC4=O)CC3)c3c2CN(S(C)(=O)=O)CC3)ccc1C(F)(F)F [Example 44, 1-Isopropyl-3-[5-(5-methanesulfonyl-1-{3-[4-(2-oxo-pyrrolidin-1-yl)-piperidin-1-yl]-propyl}-4,5,6,7-tetrahydro-1H-pyrazolo[4,3-c]pyridin-3-yl)-2-trifluoromethyl-benzyl]-urea] | 160
21 | CS(=O)(=O)N1CCc2c(c(-c3ccc(C(F)(F)F)c(CNC=O)c3)nn2CC(O)CN2CCC(N3CCCC3=O)CC2)C1 (stereo not drawn) [Example 178, N-[5-(1-{2-Hydroxy-3-[4-(2-oxo-pyrrolidin-1-yl)-piperidin-1-yl]-propyl}-5-methanesulfonyl-4,5,6,7-tetrahydro-1H-pyrazolo[4,3-c]pyridin-3-yl)-2-trifluoromethyl-benzyl]-formamide] | 1650
